Measured values published in patent US11072632B2, “Inhibitors of 17β-HSD1, 17β-HSD3 and 17β-HSD10” (UNIVERSITÉ LAVAL, priority 2011, dated 2021).

Tests used:
[1] = system: T-47D cells; assay: Inhibition of E1-stimulated T-47D cell proliferation; assay type: cell-based, human; details: control 100%
Procedure: (§1) Quantification of cell growth was determined by using CellTiter 96®Aqueous Solution Cell Proliferation Assay (Promega, Nepean, ON, Canada) following the manufacturer's instructions. T-47D cells were resuspended with the medium supplemented with insulin (50 ng/mL) and 5% dextran-coated charcoal treated FBS rather than 10% FBS to remove remaining hormones. Aliquots (100 μL) of the cell suspension were seeded in 96-well plates (3000 cells/well). After 48 h, the medium was changed with a new one containing an appropriate concentration of products to be tested and was replaced every 2 days. Cells have grown either in absence or presence of the compounds for 7 days. To determine the proliferative (estrogenic) activity, the estrogen-sensitive T-47D cells were grown in absence (basal cell proliferation was fixed as 100%) or presence of compounds to be tested at 0.5 to 10 μM. The potent estrogen E2 was used as a reference control. […] The cell proliferation without E1±inhibitor (control) was fixed as 100%. To determine the potential antiestrogenic activity of inhibitor Compound V, the T-47D (ER^+) cells were grown in the presence of estrogen E2 (0.1 nM) and pure antiestrogen EM-139 (0.5 μM) or inhibitor Compound V (0.5 μM). The cell proliferation without E2 and tested compounds (control) were fixed as 100%.

[2] = system: T-47D cells; assay: Estrogenic (proliferative) activity on T-47D (ER+) cell line; assay type: cell-based, human; details: 0.5, 1, 2.5 and 5 μM, 7 days
Procedure: as §1

[3] = system: T-47D cells; assay: Antiestrogenic activity, E2-induced T-47D proliferation; assay type: cell-based, human; details: E2 0.1 nM, compound 0.5 μM
Procedure: as §1

[4] = system: ovariectomized (OVX) BALB/c mice; assay: In vivo estrogenicity assay in OVX mice (uterus, vagina weight); design: species or system mouse; details: 7 days; for weight of the uterus: OVX mice, s.c.
Procedure: Female ovariectomized (OVX) BALB/c mice weighing approximately 20 g were obtained from Charles-River, Inc. (St-Constant, Qc., Canada). The animals were housed 5 per cage. Groups of 5 mice were treated with E1 (0.02 μg in 8% EtOH/92% PG) or 17β-HSD1 inhibitor at 10, 50 and 250 μg (0.1 mL s.c.) daily for 7 days. Animals were killed 24 h after administration of the last dose of compound and uteri and vagina were removed, excised of fat and weighed. Total body weights of mice were also recorded.

Structure (SMILES): C[C@]12CC[C@@H]3c4ccc(CCBr)cc4CC[C@H]3[C@@H]1C[C@H](Cc1cccc(C(N)=O)c1)[C@@H]2O [Compound V, 3-{[(16β,17β)-3-(2-bromoethyl)-17-hydroxyestra-1(10),2,4-trien-16-yl]methyl}benzamide]
- cell growth, E1-induced ([1]; E1 0.1 nM + inhibitor 2.5 μM): 156%
- cell growth, E1-induced ([1]; E1 0.1 nM + inhibitor 5 μM): 125%
- estrogenic (proliferative) activity on T-47D cells [2]: not estrogenic at any concentration tested
- antiestrogenic activity (reversal of E2-induced proliferation) [3]: does not reverse the proliferative effect
- estrogenicity in vivo ([4]; 10, 50 and 250 μg/mouse/day): non-estrogenic in vivo
- weight of the uterus ([4]; 10 μg/mouse/day): 25 mg
- weight of the uterus ([4]; 50 μg/mouse/day): 24 mg
- weight of the uterus ([4]; 250 μg/mouse/day): 23 mg
